According to patent US20220218852A1, “NOVEL RADIOLABELLED CXCR4-TARGETING COMPOUNDS FOR DIAGNOSIS AND THERAPY” (PROVINCIAL HEALTH SERVICES AUTHORITY, priority 2019, published 2022):
Positions of bridges follow the written chain, without caps; N, C: chain ends. Non-standard residues stand in square brackets, D forms with d. Residues, ends and D or L forms follow the SMILES beside them. Groups on a side chain read outwards from the residue. *: point of attachment. DOTA = O=C(O)CN1CCN(CC(=O)O)CCN(CC(=O)*)CCN(CC(=O)O)CC1; 2Nal = N[C@@H](Cc1ccc2ccccc2c1)C(=O)O; Lys(iPr) = CC(C)NCCCC[C@H](N)C(=O)O

Tested on: Z138 xenograft
Test: Dosimetry, Human Extrapolated from Mouse Model, based on Z138 xenograft mice
Assay type: in vivo
Conditions: Lu-177, Z138 xenograft mice
Description: The multi-time-point organ uptake obtained from biodistribution data of ^177Lu-labeled analogs was decayed to their appropriate time-point, fitted to a mono-exponential or bi-exponential model (fit chosen based on R2 and residuals) in Python (version 3.7). The area under the curve was used to compute residence times which were multiplied by model organ mass for human (NURBS model) and mouse (25 g MOBY mouse phantom) for use in OLINDA/EXM software (Hermes Medical Solution; version 2.0) that calculated dosimetry for an average mouse (Stabin et al., J Nucl Med. 2005, 46:1023-1027; Keenan et al., J Nucl Med. 2010, 51:471-476) and extrapolated to an average human male (Segars et al., J Nucl Med. 2001, 42:7; Stabin et al., J Nucl Med. 2012, 53:1807-13).

CC(C)NCCCC[C@@H]1NC(=O)[C@H](Cc2ccc(O)cc2)NC(=O)[C@H](Cc2ccccc2)NC(=O)CC[C@H](C(=O)N[C@@H](CCCCNC(C)C)C(=O)N[C@@H](CCCCNC(=O)[C@H](CCC(=O)O)NC(=O)[C@H](CCC(=O)O)NC(=O)[C@H](CCC(=O)O)NC(=O)CN2CCN(CC(=O)O)CCN(CC(=O)O)CCN(CC(=O)O)CC2)C(N)=O)NC(=O)CNC(=O)[C@H](Cc2ccc3ccccc3c2)NC(=O)[C@@H](CCCNC(=N)N)NC1=O [[^177Lu]Lu-BL02, metal not drawn] (FY[Lys(iPr)][dR][2Nal]G[dE][Lys(iPr)]K([Glu-Glu-Glu-DOTA])-NH2; lactam N-7) was tested, and the “Absorbed Dose, Adrenals” value (Adrenals) was 0.00413 mGy/MBq, the “Absorbed Dose, Brain” value (Brain) was 4.5e−05 mGy/MBq and the “Absorbed Dose, Esophagus” value (Esophagus) was 0.000564 mGy/MBq. For the same compound, the “Absorbed Dose, Eyes” value (Eyes) was 0.000296 mGy/MBq, the “Absorbed Dose, Gallbladder Wall” value (Gallbladder Wall) was 0.000923 mGy/MBq and the “Absorbed Dose, Heart” value (Heart) was 0.00148 mGy/MBq. For the same compound, the “Absorbed Dose, Kidneys” value (Kidneys) was 0.0332 mGy/MBq, the “Absorbed Dose, Left colon” value (Left colon) was 0.000755 mGy/MBq and the “Absorbed Dose, Liver” value (Liver) was 0.0183 mGy/MBq. For the same compound, the “Absorbed Dose, Lungs” value (Lungs) was 0.0126 mGy/MBq, the “Absorbed Dose, Pancreas” value (Pancreas) was 0.00105 mGy/MBq and the “Absorbed Dose, Prostate” value (Prostate) was 0.000336 mGy/MBq. For the same compound, the “Absorbed Dose, Rectum” value (Rectum) was 0.000473 mGy/MBq, the “Absorbed Dose, Red Marrow” value (Red Marrow) was 0.000377 mGy/MBq and the “Absorbed Dose, Remainder of the Body” value (Remainder of the Body) was 0.00117 mGy/MBq. The “Absorbed Dose, Right colon” value (Right colon) was 0.000642 mGy/MBq, the “Absorbed Dose, Salivary Glands” value (Salivary Glands) was 0.00031 mGy/MBq and the “Absorbed Dose, Skeleton” value (Skeleton) was 0.000457 mGy/MBq. The “Absorbed Dose, Small Intestine” value (Small Intestine) was 0.000691 mGy/MBq, the “Absorbed Dose, Spleen” value (Spleen) was 0.0193 mGy/MBq and the “Absorbed Dose, Stomach Wall” value (Stomach Wall) was 0.000883 mGy/MBq. For the same compound, the “Absorbed Dose, Testes” value (Testes) was 0.00168 mGy/MBq, the “Absorbed Dose, Thymus” value (Thymus) was 0.000454 mGy/MBq and the “Absorbed Dose, Thyroid” value (Thyroid) was 0.000396 mGy/MBq. For the same compound, the “Absorbed Dose, Urin Blad” value (Urin Blad) was 0.00032 mGy/MBq.
